Experimental data published in patent publication US7091340B2, “Polymorphs” (Boehringer Ingelheim Pharmaceuticals, Inc., priority 2003, dated 2006).

Key:
[1] = Microscopical solution phase transformation experiments; type: physicochemical; conditions: room temperature; Forms IV and VI compared
[2] = Solubility vs. temperature profile experiments; type: physicochemical; conditions: within the temperature range of the experiment

## Cc1ccc(-n2nc(C(C)(C)C)cc2NC(=O)Nc2ccc(OCCN3CCOCC3)c3ccccc23)cc1 [Form VI, 1-(5-tert-butyl-2-p-tolyl-2H-pyrazol-3-yl)-3-[4-(2-morpholin-4-yl-ethoxy)-naphthalen-1-yl]-urea]
[1]
  thermodynamic stability relative to Form IV: more thermodynamically stable at room temperature relative to Form IV
[2]
  thermodynamic relationship of the two forms: monotropically related
[2]; Forms IV and VI compared
  thermodynamic stability relative to Form IV: more thermodynamically stable relative to Form IV
